From US20030181527A1, “Novel formulations of alpha-2,4-disulfophenyl-n-tert-butylnitrone” (priority 2000, published 2003)
“Also recorded” adds a separate entry of the source.

How the values were obtained:
[1] = Photodegradation of aqueous solutions under indoor light; format: physicochemical; conditions: 400 mg/ml aqueous concentrate, room temperature, 8 hours, disodium salt
[2] = Effect on pH and stability of dilution of aqueous concentrates in 0.9% sodium chloride; format: physicochemical; conditions: 400 mg/ml concentrate, 7 ml diluted in 500 ml 0.9% NaCl, room temperature
Method: Three batches of an aqueous concentrate of α-(2,4-disulfophenyl)-N-tert-butylnitrone disodium salt (400 mg/ml) were prepared and adjusted to pH 8.5. One concentrate was unbuffered and the other two concentrates were buffered with respectively 2.6 or 26 mM disodium hydrogen phosphate. In each case a 7 ml portion of the concentrate was transferred into 0.9% sodium chloride solution (500 ml) contained in a PVC bag. The bags were the stored at room temperature, protected from light, for 48 hours. Samples were taken out at 0, 24 and 48 hours and analysed.

[3] = Effect of pH on stability of diluted 4 mg/ml solutions at room temperature; format: physicochemical
Text: The pH dependent degradation of aqueous solutions of α-(2,4-disulfophenyl)-N-tert-butylnitrone disodium salt has been extensively studied. […] Both solutions, which were obtained by appropriate dilution of a corresponding concentrate, were stored at room temperature under conditions that would reasonably simulate a diluted concentrate prepared ready for administration to patients.

Bur. cepacia = assay: Antimicrobial efficacy (European Pharmacopoeia 2000, Chapter 5.1.3); format: cell-based
Method: The antimicrobial efficacy was tested for three different solutions:
i) α-(2,4-disulfophenyl)-N-tert-butylnitrone disodium salt, 10 mg/ml;
ii) α-(2,4-disulfophenyl)-N-tert-butylnitrone disodium salt, 400 mg/ml; and
iii) a carbonate buffer control.
The tests were performed according to European Pharmacopoeia 2000, Chapter 5.1.3, pages 259 to 260. Seven 10 ml vials were inoculated, one per test organism. During the tests, the vials were stored at controlled room temperature and protected from light. At different time intervals, samples were withdrawn and after appropriate dilutions the numbers of viable microorganisms (colony forming units per ml, CFU/ml) were determined using standard plate count procedures.

[4] = 4 mg/ml buffered with phosphate (0.53 mM), 0 days
[5] = 4 mg/ml buffered with phosphate (0.53 mM), 1 day
[6] = 4 mg/ml buffered with phosphate (0.53 mM), 2 days
[7] = 4 mg/ml buffered with phosphate (0.53 mM), 5 days
[8] = 4 mg/ml buffered with phosphate (0.53 mM), 7 days
[9] = 4 mg/ml unbuffered solution, 0 days
[10] = 4 mg/ml unbuffered solution, 1 day
[11] = 4 mg/ml unbuffered solution, 2 days
[12] = 4 mg/ml unbuffered solution, 5 days
[13] = 4 mg/ml unbuffered solution, 7 days

Compound: CC(C)(C)[N+]([O-])=Cc1ccc(S(=O)(=O)[O-])cc1S(=O)(=O)[O-].[Na+].[Na+] [α-(2,4-disulfophenyl)-N-tert-butylnitrone disodium salt]
- Photodegradation [1]: no photodegradation; also recorded: no degradation at all
- Amount of Aldehyde (II) ([2]; 2.6 mM phosphate, 0 hours): 0.30 Area %
- pH ([2]; 2.6 mM phosphate, 0 hours): 6.50
- Amount of Aldehyde (II) ([2]; 2.6 mM phosphate, 24 hours): 0.44 Area %
- pH ([2]; 2.6 mM phosphate, 24 hours): 6.69
- Amount of Aldehyde (II) ([2]; 2.6 mM phosphate, 48 hours): 0.57 Area %
- pH ([2]; 2.6 mM phosphate, 48 hours): 6.67
- Amount of Aldehyde (II) ([2]; 26 mM phosphate, 0 hours): 0.17 Area %
- pH ([2]; 26 mM phosphate, 0 hours): 7.43
- Amount of Aldehyde (II) ([2]; 26 mM phosphate, 24 hours): 0.20 Area %
- pH ([2]; 26 mM phosphate, 24 hours): 7.39
- Amount of Aldehyde (II) ([2]; 26 mM phosphate, 48 hours): 0.25 Area %
- pH ([2]; 26 mM phosphate, 48 hours): 7.38
- Amount of Aldehyde (II) ([2]; no buffer, 0 hours): 0.25 Area %
- pH ([2]; no buffer, 0 hours): 6.01
- Amount of Aldehyde (II) ([2]; no buffer, 24 hours): 0.68 Area %
- pH ([2]; no buffer, 24 hours): 6.32
- Amount of Aldehyde (II) ([2]; no buffer, 48 hours): 0.89 Area %
- pH ([2]; no buffer, 48 hours): 6.48
- Amount of Aldehyde (II) [3, 4]: 0.8 Area %
- pH [3, 4]: 8.0
- Amount of Aldehyde (II) [3, 5]: 0.9 Area %
- pH [3, 5]: 7.9
- Amount of Aldehyde (II) [3, 6]: 0.9 Area %
- pH [3, 6]: 7.7
- Amount of Aldehyde (II) [3, 7]: 1.0 Area %
- pH [3, 7]: 7.5
- Amount of Aldehyde (II) [3, 8]: 1.1 Area %
- pH [3, 8]: 7.5
- Amount of Aldehyde (II) [3, 9]: 0.9 Area %
- pH [3, 9]: 6.8
- Amount of Aldehyde (II) [3, 10]: 1.1 Area %
- pH [3, 10]: 6.8
- Amount of Aldehyde (II) [3, 11]: 1.2 Area %
- pH [3, 11]: 6.8
- Amount of Aldehyde (II) [3, 12]: 1.6 Area %
- pH [3, 12]: 6.8
- Amount of Aldehyde (II) [3, 13]: 2.0 Area %
- pH [3, 13]: 6.7
- Number of CFUs per ml - Time after Inoculation (Bur. cepacia; 10 mg/ml, 6 h): 1.5 × 10^3 CFUs per ml
- Number of CFUs per ml - Time after Inoculation (Bur. cepacia; 10 mg/ml, 24 h): <1 CFUs per ml
- Number of CFUs per ml - Time after Inoculation (Bur. cepacia; 10 mg/ml, 48 h): <1 CFUs per ml
- Number of CFUs per ml - Time after Inoculation (Bur. cepacia; 10 mg/ml, 7 days): <1 CFUs per ml
- Number of CFUs per ml - Time after Inoculation (Bur. cepacia; 10 mg/ml, 14 days): <1 CFUs per ml
- Number of CFUs per ml - Time after Inoculation (Bur. cepacia; 10 mg/ml, 21 days): <1 CFUs per ml
- Number of CFUs per ml - Time after Inoculation (Bur. cepacia; 10 mg/ml, 28 days): <1 CFUs per ml
- Number of CFUs per ml - Time after Inoculation (Bur. cepacia; 10 mg/ml, <1 min): 3.5 × 10^5 CFUs per ml
- Number of CFUs per ml - Time after Inoculation (Bur. cepacia; 400 mg/ml, 6 h): 8.7 × 10^1 CFUs per ml
- Number of CFUs per ml - Time after Inoculation (Bur. cepacia; 400 mg/ml, 24 h): <1 CFUs per ml
- Number of CFUs per ml - Time after Inoculation (Bur. cepacia; 400 mg/ml, 48 h): <1 CFUs per ml
- Number of CFUs per ml - Time after Inoculation (Bur. cepacia; 400 mg/ml, 7 days): <1 CFUs per ml
- Number of CFUs per ml - Time after Inoculation (Bur. cepacia; 400 mg/ml, 14 days): <1 CFUs per ml
- Number of CFUs per ml - Time after Inoculation (Bur. cepacia; 400 mg/ml, 21 days): <1 CFUs per ml
- Number of CFUs per ml - Time after Inoculation (Bur. cepacia; 400 mg/ml, 28 days): <1 CFUs per ml
- Number of CFUs per ml - Time after Inoculation (Bur. cepacia; 400 mg/ml, <1 min): 1.1 × 10^5 CFUs per ml
- Reduction in colony forming units per ml (CFU/ml) (Bur. cepacia; 400 mg/ml, within 6 hours): ≥ 10^3 fold
